Results from US20210062139A1, “CELL AGGREGATION SUPPRESSOR” (KANEKA CORPORATION, priority 2017, published 2021).

Tests used:
Format in all cases: cell-based
[1] = test system: human iPS cells (TkDN4-M cell line); assay: Cell aggregation assay: suspension (swirling) culture of human iPS cells, phase contrast microscopy; conditions: Day 1 of culture; for cell aggregation suppression (aggregate formation observed by microscopy): compared to only Y-27632
Description: TkDN4-M cell lines (Institute of Medical Science, The University of Tokyo) were used as human iPS cells. Human iPS cells were seeded on cell culture dishes coated with Vitronectin (Thermo Fisher Scientific Co., Ltd.) and subjected to a maintenance culture using Essential 8™ (Thermo Fisher Scientific Co., Ltd.) as the culture medium. Accutase (Thermo Fisher Scientific Co., Ltd.) was used as a cell detachment agent during passage. In addition, when the cells were seeded, Y-27632 (Wako Pure Chemical Industries, Ltd.) at a concentration of 10 μM was added to a culture medium. The culture medium was changed every day. For experiments, human iPS cells (the number of passage was 50 or less) were used.
The resulting cells were suspended in Essential 8™ culture medium comprising a final concentration of 5 mg/mL of BSA (Wako Pure Chemical Industries, Ltd.) and 10 μM of Y-27632 (Wako Pure Chemical Industries, Ltd.), and a portion thereof was stained with trypan blue and the number of cells was counted. The cell suspension was prepared so as to contain 2×10^5 cells per mL. […] Then the cells were seeded at a ratio of 1.3 mL/well in a 12-well plate for suspension culture (Sumitomo Bakelite Co., Ltd.). The cell-seeded plate was subjected to a swirling culture on a rotary shaker (OPTIMA, Inc.) at a speed of 90 rpm along the horizontal plane to draw a circle with a swirling width (diameter) of 25 mm, and cells were cultured in suspension under a condition at 5% CO2 and 37° C. At the next day after the start of culture (Day 1 of culture), images were obtained by phase contrast microscopy. A control test was conducted using a cell suspension prepared under the same condition as above except that Y-27632 and TRAP-6 were not added.
(§1) A cell suspension was prepared in the same manner as in Example 2, and separately, the cell aggregation suppressor was adjusted so that the final concentration of TRAP-6 (same as above) was 3.74 mg/mL (10 mM). Then the adjusted cell aggregation suppressor was added to the cell suspension so that the final concentration of the agonist of a thrombin receptor was 5 μM. Then the cells were seeded at a ratio of 4 mL/well in a 6-well plate for suspension culture (Sumitomo Bakelite Co., Ltd.). The cell-seeded plate was subjected to a swirling culture on a rotary shaker (OPTIMA, Inc.) at a speed of 75 rpm along the horizontal plane to draw a circle with a swirling width (diameter) of 25 mm, and cells were cultured in suspension under a condition at 5% CO2 and 37° C. After the next day of culture (Day 1 of culture), the culture medium was exchanged daily for fresh medium (Essential 8™ culture medium containing BSA (Wako Pure Chemical Industries, Ltd.) at a final concentration of 5 mg/mL), and the culture continued until Day 5 of culture. A control test was conducted using a cell suspension prepared under the same condition as described above except that TRAP-6 was not added. Images were obtained by phase contrast microscopy every day during culture. The concentration of glucose contained in the culture supernatant collected at the time of culture medium exchange was measured with biosensor BF-5iD (Prince Measuring Equipment Co., Ltd.) to calculate glucose consumption.
Cell suspensions were prepared in the same manner as in Example 2 using human iPS cells cultured with the protocol of Example 1, and instead of TRAP-6, a PAR-1 agonist (Proteinase Activated Receptor-1; PAR-1 agonist, ANASPEC, AS-62937, a C-terminal amidated peptide consisting of the amino acid sequence of TFLLRN (SEQ ID NO: 8)) was added so that a final concentration thereof was 32.8 μM or S1P (sphingosine-1-phosphate; Cayman, 62570) (positive control) was added so that the final concentration thereof was 0.8 μg/mL). Then, suspension culture and image acquisition were performed in the same manner as in Example 2.

[2] = test system: human iPS cells (TkDN4-M cell line); assay: Percentage of cells positive for undifferentiation markers (flow cytometry); conditions: Day 5 of culture
Description: as §1
In addition, at Day 5 of culture, cell aggregates were collected, dispersed with Accutase, and then suspended in Essential 8™ culture medium containing 5 mg/mL BSA. A portion of this cell suspension was stained with trypan blue and the number of cells was counted. After the above cell suspensions were centrifuged at 300 g for 3 minutes, the supernatant was then removed, and the cells were washed with PBS (phosphate buffered saline). Next, the cells were fixed with 4% paraformaldehyde (Wako Pure Chemical Industries, Ltd.) at room temperature for 20 minutes, then washed 3 times with PBS. After cells were resuspended with 300 μL of PBS, 3 mL of cold methanol was added while stirring with voltex, and permeabilized at −20° C. overnight or more. After 3 washes with 3% FBS (fetal bovine serum)/PBS, cells were resuspended with 3% FBS (fetal bovine serum)/PBS and blocked at room temperature for 30 minutes to 1 hour. Subsequently, the cells were stained with fluorescently labeled anti-SOX2 antibodies (Cat. No. 656110, BioLegend, Inc.) and fluorescently labeled anti-OCT4 antibodies (Cat. No. 653703, BioLegend, Inc.) and fluorescently labeled anti-Nanog antibodies (Cat. No. 674010, BioLegend, Inc.) at 4° C. for 30 minutes to 1 hour. […] The resulting cells were analyzed on FACSVerse. […]

[3] = test system: human iPS cells (TkDN4-M cell line); assay: Size distribution of cell aggregates (width of widest portion in micrograph); conditions: TRAP-6 5 μM, Day 1 of culture
Description: as §1
For cells cultured in suspension in the presence of TRAP-6 according to Example 3, 210 cell aggregates in an image acquired at Day 1 of culture were observed and compared using a micrograph scale, the width of the widest portion (referred to as “ϕ”) of each cell aggregate was measured, then distribution thereof was examined, and the average±standard deviation was calculated.

[4] = test system: human iPS cells (TkDN4-M cell line); assay: Glucose consumption during suspension culture of human iPS cells; conditions: TRAP-6 5 μM on Day 1, then TRAP-6-free medium, Day 1 to Day 5, compared to TRAP-6 non-added condition
Description: as §1, with “A control test was conducted using a cell suspension prepared under the same condition as described above except that TRAP-6 was not added. Images were obtained by phase contrast microscopy every day during culture.” left out

[5] = test system: human iPS cells (TkDN4-M cell line); assay: Cell yield at Day 5 of suspension culture (trypan blue count); conditions: TRAP-6 5 μM on Day 1, then TRAP-6-free medium; seeded 8×10^5 cells/well
Description: as §1, with “After the next day of culture (Day 1 of culture), the culture medium was exchanged daily for fresh medium (Essential 8™ culture medium containing BSA (Wako Pure Chemical Industries, Ltd.) at a final concentration of 5 mg/mL), and the culture continued until Day 5 of culture. A control test was conducted using a cell suspension prepared under the same condition as described above except that TRAP-6 was not added. Images were obtained by phase contrast microscopy every day during culture.” left out
Cell yields were also measured at Day 5 of culture. […] After that, the number of cells was counted using a hemocytometer to determine the cell yield.

[6] = TRAP-6 5 μM on Day 1, then TRAP-6-free medium

Compound: C[C@@H](N)[C@H]1CC[C@H](C(=O)Nc2ccncc2)CC1 [Y-27632, 4-[(1R)-1-aminoethyl]-N-pyridin-4-ylcyclohexane-1-carboxamide]
- aggregate formation observed by microscopy ([1]; Y-27632 10 μM alone, compared to control without Y-27632): aggregates were formed

Compound: Thrombin Receptor Activator for Peptide 6 [TRAP-6]
- percentage of cells positive for Nanog [2, 6]: ≥ 99%
- percentage of cells positive for OCT4 [2, 6]: ≥ 98%
- percentage of cells positive for SOX2 [2, 6]: ≥ 99%
- undifferentiated state of human iPS cell aggregates ([2]; aggregates formed by addition of Y-27632 and TRAP-6 (5 μM)): remained undifferentiated
- percentage of cell aggregates with size (diameter) 40 μm or more and 300 μm or less [3]: 100%
- percentage of cell aggregates with size (diameter) 60 μm or more and 300 μm or less [3]: 100%
- percentage of cell aggregates with size (diameter) 80 μm or more and 300 μm or less [3]: 98.0%
- percentage of cell aggregates with size (diameter) 100 μm or more and 300 μm or less [3]: 97.0%
- average±standard deviation of cell aggregate size (diameter) ([3]; 210 cell aggregates): 167.8±35.3 μm
- Number of cell aggregates by size ([3]; size range 40- μm): 0
- Percentage of cell aggregates by size ([3]; size range 40- μm): 0%
- Number of cell aggregates by size ([3]; size range 60- μm): 4
- Percentage of cell aggregates by size ([3]; size range 60- μm): 2%
- Number of cell aggregates by size ([3]; size range 80- μm): 2
- Percentage of cell aggregates by size ([3]; size range 80- μm): 1%
- Number of cell aggregates by size ([3]; size range 100- μm): 5
- Percentage of cell aggregates by size ([3]; size range 100- μm): 2%
- Number of cell aggregates by size ([3]; size range 120- μm): 25
- Percentage of cell aggregates by size ([3]; size range 120- μm): 12%
- Number of cell aggregates by size ([3]; size range 140- μm): 58
- Percentage of cell aggregates by size ([3]; size range 140- μm): 28%
- Number of cell aggregates by size ([3]; size range 160- μm): 56
- Percentage of cell aggregates by size ([3]; size range 160- μm): 27%
- Number of cell aggregates by size ([3]; size range 180- μm): 31
- Percentage of cell aggregates by size ([3]; size range 180- μm): 15%
- Number of cell aggregates by size ([3]; size range 200- μm): 13
- Percentage of cell aggregates by size ([3]; size range 200- μm): 6%
- Number of cell aggregates by size ([3]; size range 220- μm): 8
- Percentage of cell aggregates by size ([3]; size range 220- μm): 4%
- Number of cell aggregates by size ([3]; size range 240- μm): 3
- Percentage of cell aggregates by size ([3]; size range 240- μm): 1%
- Number of cell aggregates by size ([3]; size range 260- μm): 4
- Percentage of cell aggregates by size ([3]; size range 260- μm): 2%
- Number of cell aggregates by size ([3]; size range 280- μm): 1
- Percentage of cell aggregates by size ([3]; size range 280- μm): 0%
- Number of cell aggregates by size ([3]; size range 300- μm): 0
- Percentage of cell aggregates by size ([3]; size range 300- μm): 0%
- glucose consumption [4]: greater than that under the TRAP-6 non-added condition
- proliferation of seeded cells (cell yield) at Day 5 of culture [5]: 8.5 fold
- cell aggregation suppression (aggregate formation observed by microscopy) ([1]; TRAP-6 2 μM with Y-27632 10 μM): aggregation was suppressed and smaller aggregates were formed
- aggregate size observed by microscopy ([1]; TRAP-6 5 μM with Y-27632 10 μM, 6-well plate, 75 rpm, compared to no TRAP-6): formation of smaller aggregates
- cell aggregation suppression (aggregate formation observed by microscopy) ([1]; TRAP-6 10 μM with Y-27632 10 μM): aggregation was suppressed and smaller aggregates were formed
- cell aggregation suppression (aggregate formation observed by microscopy) ([1]; TRAP-6 50 μM with Y-27632 10 μM): aggregation was suppressed and smaller aggregates were formed

Compound: CCCCCCCCCCCCC/C=C/[C@@H](O)[C@@H](N)COP(=O)(O)O [S1P, sphingosine-1-phosphate]
- cell aggregation suppression (aggregate formation observed by microscopy) ([1]; S1P 0.8 μg/mL (positive control) with Y-27632 10 μM): aggregation was suppressed and smaller aggregates were formed
